# Counter-ions that a name gives are not always drawn.
# Key:
# E. coli (MG1655) = experiment: NAD+/NADH reporter: E. coli reporter assay; assay type: cell-based, Escherichia coli
# Protocol: NAD+/NADH reporter: E. coli reporter assay. The NAD+/NADH reporter plasmid (Liu et al., 2019) was transformed into E. coli (MG1655) for growth and fluorescence assays. Overnight cultures of E. coli were diluted 1:1000 in fresh Luria Broth. The diluted cultures were allowed to grow to 0.2 OD before treatment with amoxicillin and metformin. Fluorescence and growth (in OD) were measured in parallel using two plate readers. Data is shown with fluorescence normalized to growth and as separate growth and fluorescence curves.
# This ratio is a stand in for cellular bioenergetics with a high ratio indicative of increased catabolism
# The inventors then treated these bacteria with metformin and measured their growth and fluorescence. […] Dwyer et al. (2014). […] Stynen et al. (2018).
# [1] = Redox potential (eH) and pH measurements of cecal contents; assay type: in vivo, C57BL/6J mice; settings: mice on standard chow diet
# Protocol: Mouse assays. C57BL/6J mice following the habituation period were given one week to acclimate to the control 0-fiber diet with 20% (w/w) glucose. After this diet acclimation period, mice were randomized into new cages for each diet/antibiotic condition. Amoxicillin was administered via drinking water (25 mg/kg/day) ad libitum for the specified timepoints. All drinking water was filter-sterilized before administration. Fecal samples were collected at the specified timepoints and stored at −20° C. until nucleic acid extraction. Cecum contents were collected directly into bead-bashing tubes with DNA/RNA shield (Zymo Research, Irvine, CA, USA) and stored at −80° C. for nucleic acid extraction. […]
# Redox potential and pH measurements. Redox potential was measured according to a modified protocol from Husson (2012); Husson et al. (2016) with an Ag/AgCl Reference electrode (Radiometer analytical E21M002, Radiometer Analytical Pt plate electrode 5×5 mm M241 Pt), and a voltmeter. […] The samples were blinded and measured in random order. […]
# The platinum electrode was inserted into each sample. […] The same cecal extracts were used to measure pH using a PH meter and for subsequent validation with ATP assays, 16S rRNA sequencing and quantitative polymerase chain reaction (qPCR) bacterial load. […]
# murine gut microbiome = experiment: Oats diet with amoxicillin challenge, 16S rRNA sequencing of fecal pellets (Example 11); assay type: in vivo, C57BL/6J mice; settings: Day 5, across each diet group
# Source text: In Example 11, mice were fed LabDiet 5001 (LD01; LabDiet, St. Louis, MO, USA) feed pellets for a 2-week habituation period. For experimental diets, a custom base diet reflecting standard mouse chow fiber content was designed (Envigo-Teklad, Madison, WI, USA). The base diet modifies AlN-93G (TD.180901) by removing all cellulose and reducing cornstarch content while adjusting micro- and macronutrient contents so the diet could be an 80% base for 20% (wt/wt) supplementation with other carbon sources. Buffalo cornstarch (Ingredion Incorporated, IL, USA) was used to increase host accessibility and reduce cornstarch availability in the cecum and lower gastrointestinal tract. […]
# In Example 11, total DNA and RNA was liberated from bacteria by bead-bashing fecal or cecum samples for 5 min on a Bead Ruptor 96 (Omni International, Kennesaw, GA). […] Nucleic acids were eluted in nuclease-free water and measured using the double-stranded DNA high sensitivity (dsDNA-HS) or RNA-HS kits on a Qubit 3.0 fluorometer (Thermo Fisher Scientific, Waltham, MA, USA).
# In Example 11, the 16S rRNA gene V4 region was amplified from fecal total DNA using barcoded 515F forward and indexed 806R reverse primers as described by Parada, Needham, & Fuhrman, Environ. […] Amplicons were verified by gel electrophoresis, measured on the Qubit 3.0 and pooled in equimolar concentrations. […]
# E. coli = experiment: Amoxicillin kill curve in E. coli; assay type: cell-based, Escherichia coli; settings: aerobic, increasing concentrations of metformin
# Protocol: Bacterial strains. Bacteroides thetaiotaomicron (VPI-5482) can be obtained from the American Type Culture Collection (ATCC; Manassas, VA, USA). Bacteroides theta was cultured in modified Gifu Anaerobic Media (mGAM, HyServe). Escherichia coli (MG1655) was cultured in Luria Broth (Fisher Scientific, Waltham, MA, USA). Anaerobic assays were cultured in a BactronEZ anaerobic chamber (Sheldon Manufacturing, Cornelius, OR, USA) under an atmosphere of 5% H2, […]. All bacteria were grown at 37° C.
# Amoxicillin kill curves in E. coli and B. theta. Kill Curves for E. coli were done in an aerobic environment and for B. theta in the anaerobic chamber. Overnight cultures s were grown in Luria Broth (E. coli) or mGAM (B. theta). Overnight cultures were diluted 1:100 in fresh media. They were allowed to grow to 0.2 OD before treatment with amoxicillin and metformin. Samples were grown at 37° C. and plated every two hours for six hours in serial dilutions. Colony forming units (CFUs) were measured the following day.
# The inventors then tested the survival of bacteria treated with metformin against amoxicillin. […] These assays were conducted aerobically in E. coli.
# [2] = tested on: Bacteroides thetaiotaomicron; experiment: Amoxicillin kill curve in B. theta; assay type: cell-based; settings: anaerobic
# Protocol: Bacteroides theta was cultured in modified Gifu Anaerobic Media (mGAM, HyServe). […] Anaerobic assays were cultured in a BactronEZ anaerobic chamber (Sheldon Manufacturing, Cornelius, OR, USA) under an atmosphere of 5% H2, 5% N2, and 90% CO2. All bacteria were grown at 37° C.
# gut microbiome = experiment: Metformin in vivo supplementation during antibiotic treatment, 16S rRNA sequencing of cecal contents; parameters: species or system C57BL/6J mice
# Protocol: Mouse assays. C57BL/6J mice following the habituation period were given one week to acclimate to the control 0-fiber diet with 20% (w/w) glucose. After this diet acclimation period, mice were randomized into new cages for each diet/antibiotic condition. Amoxicillin was administered via drinking water (25 mg/kg/day) ad libitum for the specified timepoints. All drinking water was filter-sterilized before administration. Fecal samples were collected at the specified timepoints and stored at −20° C. until nucleic acid extraction. Cecum contents were collected directly into bead-bashing tubes with DNA/RNA shield (Zymo Research, Irvine, CA, USA) and stored at −80° C. for nucleic acid extraction. For the redox potential (eH) and pH measurements, total cecal contents were immediately flash frozen in liquid nitrogen and lyophilized and stored at −80° C. until measurements were taken.
# 16S rRNA amplicon preparation and sequencing. The 16S rRNA V4 hypervariable region was amplified from total DNA using the barcoded 515F forward primer and the 806R reverse primers from the Earth Microbiome Project (Thompson et al., 2017). Amplicons were generated using 5× Phusion High-Fidelity DNA Polymerase under these cycling conditions: (1) initial denaturation at 98 °C for thirty seconds, followed by (2) twenty-five cycles of 98 °C for ten seconds, 57 °C for thirty seconds, and 72° C. for thirty seconds, then (3) a final extension at 72 °C for five minutes. Gel electrophoresis was used to visualize amplicons and pooled in equimolar amounts. The pooled amplicon library was submitted to the Rhode Island Genomics and Sequencing Center at the University of Rhode Island (Kingston, RI, USA) for sequencing on the Illumina MiSeq platform. Amplicons were paired-end sequenced (2×250 bp) using the 600-cycle kit with standard protocols. Raw reads were deposited in the NCBI Sequence Read Archive (SRA).
# 16S sequencing analysis. Raw 16S rRNA reads were first demultiplexed with idemp. Quality filtering, trimming, de-noising with DADA2 (q2-dada2). […] Merging was done using the Qiime2 pipeline (version 2019.10). […] Ribosomal sequence variants were aligned with mafft (q2-alignment). […] Phylogenetic tree construction was done with fasttree2 (q2-phylogeny). […] Taxonomic assignment was conducted using the pre-trained Naive Bayes classifier and the q2-feature-classifier (Bokulich et al., 2018) trained on the SILVA 132 99% database. […] Alpha diversity (Shannon, Faith's phylogenetic diversity) and beta diversity (Bray-Curtis dissimilarity) were calculated using the phyloseq package (version 1.30.0) in R (version 3.6.2).
# (§1) Metformin in vivo supplementation. Metformin hydrochloride (Fisher Scientific, Waltham, MA, USA) was added to powdered mouse diet at 100 mg/kg (w/w) or 0.1% in the glucose diet and homogenized before administration to mice via feeding jars. In the chow diet metformin was added 50 mg/kg (w/w) or 0.05%.
# The inventors used metformin supplemented diets and supplemented the control low-fiber diet with 100 mg/kg of metformin hydrochloride (MPI Chemicals) during antibiotic treatment for five days.
# The inventors then extracted DNA from the cecal contents of mice Day 1 and Day 5 following antibiotic treatment and used 16S rRNA sequencing to investigate changes in gut microbiome composition.
# [3] = Mass spectrometry for metformin measurement in serum, liver and cecum; assay type: in vivo, C57BL/6J mice; settings: low-fiber glucose diet with 100 mg/kg metformin hydrochloride, five days, LC/MS
# Protocol: as §1
# Mass spectrometry for metformin measurement. Plasma, liver and cecal samples were collected for from the sacrificed mice in the two metformin supplementation assays (n=6 mice per group, twenty-four mice/assay). The liver was perfused with phosphate-buffered saline upon collection and the tissue was homogenized with reverse osmosis-purified water at 1 mg/10 μL using a Bead Ruptor at speed 30 for five minutes. Supernatants from the homogenate was collected after centrifugation at 2000×g for five minutes to pellet beads. Cecal contents were also homogenized with reverse osmosis-purified water at 1 mg/10 μL, and supernatants were used for analysis. Metformin extraction and mass spec protocol modified from Chaudhari et al. (2020). For metformin extraction, 30 μL of cecal/tissue homogenates or plasma were added to 70 μL of D6-metformin ([sequence]) at 250 μM concentration in methanol. […]
# Metformin in biological samples after spiking with D6-metformin ([sequence]) and extraction was quantitated with HPLC-MS on an Ultimate 3000, Dionex coupled to Q Executive Classic (Thermo Fisher) with ESI interface. […]
SMILES,"NADH reporter fluorescence (NADH/NAD+ ratio) (E. coli (MG1655); E. coli, antibiotic treatment)",chemical redox of cecal contents [1],relative proportion of Bacteroidota and Verrucomicrobiota compared to controls (murine gut microbiome),survival of bacteria challenged with amoxicillin (E. coli),protection from amoxicillin (kill curve) [2],"Desulfobacterota and Cyanobacteria phyla abundance (gut microbiome; all metformin treatment groups, low-fiber glucose diet and laboratory chow)","antibiotic-induced decrease in diversity (Shannon) (gut microbiome; glucose diet with metformin, Day 1 and Day 5 of antibiotic treatment)","Proteobacteria at Day 5 of antibiotic treatment (gut microbiome; glucose diet, metformin plus antibiotic, Day 5)","bacterial diversity, metformin alone (gut microbiome; glucose diet, no antibiotics, Day 5)","initial spike in Proteobacteria during antibiotic treatment (gut microbiome; glucose low-fiber diet, Day 1)",reduction in microbial diversity during antibiotic treatment (gut microbiome; laboratory chow with metformin),"NADH reporter fluorescence (NADH/NAD+ ratio), effect on the antibiotic-induced increase (E. coli (MG1655); E. coli treated with amoxicillin and metformin)","metformin levels in cecum, liver and serum [3]"
"CC1(C)S[C@@H]2[C@H](NC(=O)[C@H](N)c3ccc(O)cc3)C(=O)N2[C@H]1C(=O)O [amoxicillin, Amoxicillin]",significantly increased fluorescence,increased the chemical redox,Bacteroidota receded and that of Verrucomicrobiota increased,–,–,–,–,–,–,–,–,–,–
"CN(C)C(=N)N=C(N)N [metformin, Metformin hydrochloride]",–,–,–,improved the survival of bacteria,significant protection from amoxicillin,complete depletion,smaller decrease in diversity,bloom in Proteobacteria in the Moraxellaceae family,significant changes in bacterial diversity,prevented the initial spike in Proteobacteria,smaller reduction in microbial diversity,suppressed this increase,significantly higher in the cecum compared to the liver and serum
